Experimental data published in patent US10828305B2 (SHANGHAI PHARMACEUTICALS HOLDING CO., LTD., priority 2016, dated 2020).
Like-named read-outs stand apart in the source and are kept apart here.

What was measured:
CYP2B6 = biological target: T1, CYP2B6 (Homo sapiens, UniProt P20813); assay: Direct inhibition of CYP2B6, human liver microsome; assay type: in vitro ADME; details: probe bupropion, read-out: IC50 2B6 (Bupropion)
T1 construct: from tissue; host or cells: human liver microsomes
T1 sequence (P20813 1-491): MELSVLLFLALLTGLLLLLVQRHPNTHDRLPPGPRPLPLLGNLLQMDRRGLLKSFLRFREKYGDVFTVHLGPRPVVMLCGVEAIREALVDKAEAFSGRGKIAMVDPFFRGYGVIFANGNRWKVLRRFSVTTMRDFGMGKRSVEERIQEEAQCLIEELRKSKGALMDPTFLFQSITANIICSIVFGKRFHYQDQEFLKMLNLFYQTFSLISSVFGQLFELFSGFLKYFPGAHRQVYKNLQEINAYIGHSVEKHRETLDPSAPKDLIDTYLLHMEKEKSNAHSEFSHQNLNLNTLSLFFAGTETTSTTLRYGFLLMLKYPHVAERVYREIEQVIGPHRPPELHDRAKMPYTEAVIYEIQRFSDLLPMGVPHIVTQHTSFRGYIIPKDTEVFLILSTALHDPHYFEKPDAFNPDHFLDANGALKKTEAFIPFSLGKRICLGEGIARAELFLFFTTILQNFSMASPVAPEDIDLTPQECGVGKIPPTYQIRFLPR
Method: (§1) Research on Direct Inhibition of CYP2B6 and CYP2C8
(§2) 100 μL human liver microsome (with final concentration of 0.2 mg/mL) was used for direct inhibition under warm incubation. The positive control system contained NADPH (with final concentration of 1 mmol/L), a mixture of positive inhibitors (ketoconazole 0.05 to 50 μmol/L, montelukast sodium 0.001 to 1 μmol/L), and a substrate mixture (with final concentration of amfepramone 50 μmol/L and paclitaxel 5 μmol/L), and the reaction was terminated after incubation for 20 min. The positive inhibitor was replaced with 0.1 to 100 μmol/L test compound in the test compound group. The reaction was terminated with acetonitrile containing […] internal standard tinidazole (1:3), vortexed for 10 min, centrifuged at 6000×g for 10 min, and 50 μL supernatant was taken and put into a 96-well plate for injection.
(§3) In this experiment, IC50 of inhibition of the compound on the enzyme was calculated by measuring relative production of the probe metabolite. The activity of CYP3A4 was simultaneously characterized by two probes of midazolam and testosterone.

CYP2C8 = biological target: T2, CYP2C8 (Homo sapiens, UniProt P10632); assay: Direct inhibition of CYP2C8, human liver microsome; assay type: in vitro ADME; details: probe paclitaxel, read-out: IC50 2C8 (Paclitaxel)
T2 construct: from tissue; host or cells: human liver microsomes
T2 sequence (P10632 1-490): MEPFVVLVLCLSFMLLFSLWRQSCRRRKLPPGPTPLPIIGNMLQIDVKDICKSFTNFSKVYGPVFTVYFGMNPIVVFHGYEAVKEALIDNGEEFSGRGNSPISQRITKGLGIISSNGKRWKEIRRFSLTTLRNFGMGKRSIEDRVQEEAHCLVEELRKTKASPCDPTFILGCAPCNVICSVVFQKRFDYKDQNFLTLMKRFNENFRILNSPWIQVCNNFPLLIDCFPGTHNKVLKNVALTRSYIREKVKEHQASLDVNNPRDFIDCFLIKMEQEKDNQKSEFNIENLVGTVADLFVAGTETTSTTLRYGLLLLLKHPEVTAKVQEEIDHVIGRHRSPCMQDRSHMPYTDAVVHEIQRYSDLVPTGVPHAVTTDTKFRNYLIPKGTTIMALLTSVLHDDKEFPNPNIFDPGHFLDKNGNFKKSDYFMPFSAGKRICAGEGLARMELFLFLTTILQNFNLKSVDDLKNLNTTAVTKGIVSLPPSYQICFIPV
Method: as §1, §2, §3

CYP3A4 = biological target: T3, CYP3A4 (Homo sapiens, UniProt P08684); assay: Direct inhibition of CYP3A4, human liver microsome; assay type: in vitro ADME
T3 construct: from tissue; host or cells: human liver microsomes
Method: (§4) Research on Direct Inhibition of CYP3A4, CYP2D6, CYP2C9, CYP2C19, CYP1A2
(§5) 100 μL human liver microsome (with final concentration of 0.2 mg/mL) was used for direct inhibition under warm incubation, the positive control system contained NADPH (with final concentration of 1 mmol/L), a mixture of positive inhibitors (ketoconazole 0.01 to 10 μmol/L, quinidine 0.01 to 10 μmol/L, sulfaphenazole 0.1 to 100 μmol/L, tranylcypromine 1 to 1000 μmot/L, α-naphthoflavone 0.01 to 10 μmol/L), and a substrate mixture (with final concentration of midazolam 10 μmol/L, testosterone 100 μmol/L, dextromethorphan 10 μmol/L, diclofenac 20 μmol/L, S-mephenytoin 50 μmol/L, phenacetin 100 μmol/L), and the reaction was terminated after incubation for 20 min. The positive inhibitor was replaced with 0.1 to 100 μmol/L test compound in the test compound group. The reaction was terminated with acetonitrile containing 0.11 μg/mL internal standard tinidazole (1:3), vortexed for 10 min, centrifuged at 6000×g for 10 min, 50 μL supernatant was taken and put into a 96-well plate for injection.
as §3

CYP2D6 = biological target: T4, CYP2D6 (Homo sapiens, UniProt P10635); assay: Direct inhibition of CYP2D6, human liver microsome; assay type: in vitro ADME; details: probe dextromethorphan, read-out: IC50 2D6 (Dextromethorphan)
T4 construct: from tissue; host or cells: human liver microsomes
Method: as §4, §5, §3

BT-474 = assay: Proliferation inhibition assay in vitro, BT-474 (CellTiter-Glo); assay type: cell-based; details: Homo sapiens, 72 hours, read-out: IC50(nM) cell BT-474
How it was run: (§6)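 Cells were seeded at 8.8×10^4 cells/mL for BT-474 or 6.6×10^4 cells/mL for N87 and grown overnight. Compound was added at 9 concentrations in duplicate for 72 h at 37 °C, 5% CO2. Viability was measured by CellTiter-Glo.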

N87 = assay: Proliferation inhibition assay in vitro, N87 (CellTiter-Glo); assay type: cell-based; details: Homo sapiens; 72 hours; read-out: IC50(nM) cell N87
How it was run: as §6

[1] = probe midazolam, read-out: IC50 3A4 (Midazolam)
[2] = probe testosterone, read-out: IC50 3A4 (testosterone)

T3 sequence (P08684 whole entry): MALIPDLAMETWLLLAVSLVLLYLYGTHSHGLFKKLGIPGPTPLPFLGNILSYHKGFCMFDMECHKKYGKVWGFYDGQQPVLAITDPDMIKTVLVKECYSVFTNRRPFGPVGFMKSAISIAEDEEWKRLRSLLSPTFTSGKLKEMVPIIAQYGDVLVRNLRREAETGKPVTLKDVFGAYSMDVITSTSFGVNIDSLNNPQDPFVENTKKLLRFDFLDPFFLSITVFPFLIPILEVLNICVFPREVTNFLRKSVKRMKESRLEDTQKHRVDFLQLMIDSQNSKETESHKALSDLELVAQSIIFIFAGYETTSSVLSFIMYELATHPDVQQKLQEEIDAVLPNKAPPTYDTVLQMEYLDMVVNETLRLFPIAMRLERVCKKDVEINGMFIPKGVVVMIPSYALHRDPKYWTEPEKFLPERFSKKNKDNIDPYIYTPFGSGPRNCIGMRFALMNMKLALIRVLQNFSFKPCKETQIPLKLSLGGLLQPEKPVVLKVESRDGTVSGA
T4 sequence (P10635 whole entry): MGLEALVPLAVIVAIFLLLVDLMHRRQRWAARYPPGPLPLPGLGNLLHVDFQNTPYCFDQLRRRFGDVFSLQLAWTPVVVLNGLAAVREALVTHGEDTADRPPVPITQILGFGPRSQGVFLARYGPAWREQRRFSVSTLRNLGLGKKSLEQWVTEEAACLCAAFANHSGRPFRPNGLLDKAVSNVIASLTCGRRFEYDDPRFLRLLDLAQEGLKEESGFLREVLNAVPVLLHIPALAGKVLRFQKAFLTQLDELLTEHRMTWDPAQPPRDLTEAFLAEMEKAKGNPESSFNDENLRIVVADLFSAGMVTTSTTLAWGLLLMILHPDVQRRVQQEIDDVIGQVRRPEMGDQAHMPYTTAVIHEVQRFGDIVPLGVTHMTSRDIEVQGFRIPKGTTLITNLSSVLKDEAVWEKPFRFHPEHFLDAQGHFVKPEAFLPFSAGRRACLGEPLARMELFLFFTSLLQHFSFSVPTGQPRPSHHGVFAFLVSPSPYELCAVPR

Row | Structure (SMILES) | IC50 (CYP2B6) [µM] | IC50 (CYP2C8) [µM] | IC50 (CYP3A4; [1]) [µM] | IC50 (CYP3A4; [2]) [µM] | IC50 (CYP2D6) [µM] | IC50 (BT-474) [nM] | IC50 (N87) [nM]
1 | Cc1cc(Nc2ncnc3ccc(NC4=NC(C)(C)CO4)cc23)ccc1Oc1ccn2ncnc2c1 [ARRY-380, reference compound] | > 100 | 3 | 11 | 11 | 3 | – | –
2 | Cc1cc(Nc2ncnc3ccc(NC4=NC(C)(C)CO4)cc23)ccc1Oc1cc2nncn2cn1 [Embodiment 4, N^4-(4-([1,2,4]triazolo[4,3-c]pyrimidin-7-yloxy)-3-methylphenyl)-N^6-(4,4-dimethyl-4,5-dihydrooxazol-2-yl)quinazoline-4,6-diamine] | > 100 | 15 | 25 | 21 | 12 | 19.7 | 23
